Experimental data: ChEMBL document CHEMBL5500412, “Discovery of Highly Selective, Potent, Covalent, and Orally Bioavailable Factor XIIa Inhibitors for the Treatment of Thrombo-Inflammation” (J Med Chem, 2024)
Calls of active or inactive are those of the source. The calls are words filed in the database; no cut-off is given here.

Key:
Coagulation factor XII [1] = molecular target: T1, Coagulation factor XII (Homo sapiens, UniProt P00748); experiment: Inhibition of human FXIIa (unknown origin)
T1 sequence (P00748 whole entry): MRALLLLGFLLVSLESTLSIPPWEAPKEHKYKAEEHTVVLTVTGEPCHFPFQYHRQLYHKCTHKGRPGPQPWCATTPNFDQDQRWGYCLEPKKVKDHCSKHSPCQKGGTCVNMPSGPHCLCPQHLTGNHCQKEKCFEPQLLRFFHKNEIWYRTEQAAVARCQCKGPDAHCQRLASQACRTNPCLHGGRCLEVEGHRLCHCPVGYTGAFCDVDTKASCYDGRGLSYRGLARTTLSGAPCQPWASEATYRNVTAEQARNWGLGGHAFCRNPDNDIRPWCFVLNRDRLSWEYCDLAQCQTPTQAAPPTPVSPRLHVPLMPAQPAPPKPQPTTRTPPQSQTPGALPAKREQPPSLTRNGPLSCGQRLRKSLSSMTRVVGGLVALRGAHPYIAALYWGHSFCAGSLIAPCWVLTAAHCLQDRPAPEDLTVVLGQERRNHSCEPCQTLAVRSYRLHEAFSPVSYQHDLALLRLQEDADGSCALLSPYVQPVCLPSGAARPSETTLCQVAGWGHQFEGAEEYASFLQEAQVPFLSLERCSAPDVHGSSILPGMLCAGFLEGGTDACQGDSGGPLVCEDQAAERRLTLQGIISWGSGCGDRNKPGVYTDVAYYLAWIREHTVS

Coagulation factor XII [2] = molecular target: T1, Coagulation factor XII; experiment: Inhibition of FXIIa (unknown origin) using H-D-Pro-Phe-Arg-pNA as substrate incubated for 20 mins followed by substrate addition by spectrophotometric analysis
[3] = molecular target: T2, Coagulation factor XII (Homo sapiens) (UniProt P00748); experiment: Inhibition of FXIIa (unknown origin) using H-D-Pro-Phe-Arg-pNA as substrate at 500 nM incubated for 20 mins followed by substrate addition by spectrophotometric analysis relative to control
T2 sequence (whole entry): T1 sequence (P00748 whole entry)

RAW264.7 [4] = experiment: Antiinflammatory activity in mouse RAW264.7 cells assessed as inhibition of LPS-induced IL-1 beta expression at 10 uM preincubated for 12 hrs followed by LPS stimulation and measured after 12 hrs by real time quantitative RT-PCR assay; type: functional, cell-based; conditions: time 24.0 hrs
RAW264.7 [5] = experiment: Antiinflammatory activity in mouse RAW264.7 cells assessed as inhibition of LPS-induced IL-6 expression at 10 uM preincubated for 12 hrs followed by LPS stimulation and measured after 12 hrs by real time quantitative RT-PCR assay; type: functional, cell-based; conditions: time 24.0 hrs
[6] = Toxicity in BALB/c mouse assessed as prolongation of bleeding time at 30 mg/kg, po measured after 90 mins; type: organism-based; conditions: in vivo, 1.5 h
[7] = Selectivity index, ratio of IC50 for PKal (unknown origin) to IC50 for FXIIa (unknown origin)
[8] = Selectivity index, ratio of IC50 for plasmin (unknown origin) to IC50 for FXIIa (unknown origin)
Plasma kallikrein = Plasma kallikrein (Homo sapiens, UniProt P03952); experiment: Inhibition of PKal (unknown origin) using H-D-Pro-Phe-Arg-pNA-2HCl as substrate incubated for 20 mins followed by substrate addition by spectrophotometric analysis
Sequence of Plasma kallikrein (P03952 20-390 limits assumed): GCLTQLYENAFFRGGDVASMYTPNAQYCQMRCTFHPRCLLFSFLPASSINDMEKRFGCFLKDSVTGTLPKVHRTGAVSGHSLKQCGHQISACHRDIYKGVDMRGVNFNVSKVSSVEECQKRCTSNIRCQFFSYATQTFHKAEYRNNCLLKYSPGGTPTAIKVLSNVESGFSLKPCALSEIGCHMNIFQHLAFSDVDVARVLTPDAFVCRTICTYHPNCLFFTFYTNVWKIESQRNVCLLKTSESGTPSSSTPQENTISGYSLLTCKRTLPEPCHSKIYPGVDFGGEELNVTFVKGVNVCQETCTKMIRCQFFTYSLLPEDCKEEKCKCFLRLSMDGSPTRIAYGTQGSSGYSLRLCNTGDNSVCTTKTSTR
Sequence of Plasma kallikrein (P03952 391-638 limits assumed): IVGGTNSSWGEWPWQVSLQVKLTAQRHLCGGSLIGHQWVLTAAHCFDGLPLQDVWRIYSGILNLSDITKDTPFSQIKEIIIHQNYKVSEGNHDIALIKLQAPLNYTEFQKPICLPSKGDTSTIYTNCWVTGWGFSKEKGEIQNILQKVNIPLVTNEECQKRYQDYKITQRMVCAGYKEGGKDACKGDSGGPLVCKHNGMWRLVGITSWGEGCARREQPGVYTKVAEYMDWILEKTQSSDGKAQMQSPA

[9] = molecular target: Tissue-type plasminogen activator (Homo sapiens, UniProt P00750); experiment: Inhibition of tPA (unknown origin) using H-D-lle-Pro-Arg-pNA-2HCl as chromogenic substrate incubated for 20 mins followed by substrate addition by spectrophotometric analysis
Sequence of Tissue-type plasminogen activator (P00750 whole entry): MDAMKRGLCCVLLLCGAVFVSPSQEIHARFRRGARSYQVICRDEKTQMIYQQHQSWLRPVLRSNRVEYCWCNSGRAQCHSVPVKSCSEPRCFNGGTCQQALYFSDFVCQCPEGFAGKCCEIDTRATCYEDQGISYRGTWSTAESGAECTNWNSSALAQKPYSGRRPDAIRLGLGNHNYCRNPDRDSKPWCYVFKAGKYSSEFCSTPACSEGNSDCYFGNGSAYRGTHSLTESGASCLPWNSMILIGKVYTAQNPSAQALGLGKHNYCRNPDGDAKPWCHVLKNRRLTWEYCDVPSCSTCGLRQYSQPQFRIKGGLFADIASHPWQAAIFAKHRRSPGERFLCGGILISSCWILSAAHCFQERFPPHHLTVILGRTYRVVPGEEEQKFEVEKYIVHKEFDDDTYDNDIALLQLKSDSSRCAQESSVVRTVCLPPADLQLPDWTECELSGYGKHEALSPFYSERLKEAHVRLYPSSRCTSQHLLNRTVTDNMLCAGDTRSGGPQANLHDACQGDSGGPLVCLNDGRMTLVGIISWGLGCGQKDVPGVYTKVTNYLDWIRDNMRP

Plasma [10] = experiment: Anticoagulant activity in human plasma assessed as prolongation of activated partial thromboplastin time at 300 uM incubated for 2 mins by aPTT reagent based assay relative to control; type: functional
[11] = Selectivity index, ratio of IC50 for chymotrypsin (unknown origin) to IC50 for FXIIa (unknown origin)
[12] = Selectivity index, ratio of IC50 for thrombin (unknown origin) to IC50 for FXIIa (unknown origin)
Prothrombin = Prothrombin (Homo sapiens, UniProt P00734); experiment: Inhibition of thrombin (unknown origin) using H-D-Phe-Pip-Arg-pNA-2HCl as substrate incubated for 20 mins followed by substrate addition by spectrophotometric analysis
[13] = Selectivity index, ratio of IC50 for trypsin (unknown origin) to IC50 for FXIIa (unknown origin)
Coagulation factor XI = Coagulation factor XI (Homo sapiens, UniProt P03951); experiment: Inhibition of FXIa (unknown origin) using p-Glu-Pro-Arg-pNA.HCl as chromogenic substrate incubated for 20 mins followed by substrate addition by spectrophotometric analysis
Sequence of Coagulation factor XI (P03951 19-387 limits assumed): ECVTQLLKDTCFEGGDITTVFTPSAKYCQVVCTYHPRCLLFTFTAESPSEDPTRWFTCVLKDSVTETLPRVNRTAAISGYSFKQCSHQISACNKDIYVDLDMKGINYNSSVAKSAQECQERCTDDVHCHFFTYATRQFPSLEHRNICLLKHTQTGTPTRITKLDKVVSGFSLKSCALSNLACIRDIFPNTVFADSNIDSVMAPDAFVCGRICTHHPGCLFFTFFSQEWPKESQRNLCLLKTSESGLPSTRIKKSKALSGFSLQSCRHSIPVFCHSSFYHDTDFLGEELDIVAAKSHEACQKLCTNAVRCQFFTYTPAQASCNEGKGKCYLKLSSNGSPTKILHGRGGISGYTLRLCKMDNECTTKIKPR
Sequence of Coagulation factor XI (P03951 388-625 limits assumed): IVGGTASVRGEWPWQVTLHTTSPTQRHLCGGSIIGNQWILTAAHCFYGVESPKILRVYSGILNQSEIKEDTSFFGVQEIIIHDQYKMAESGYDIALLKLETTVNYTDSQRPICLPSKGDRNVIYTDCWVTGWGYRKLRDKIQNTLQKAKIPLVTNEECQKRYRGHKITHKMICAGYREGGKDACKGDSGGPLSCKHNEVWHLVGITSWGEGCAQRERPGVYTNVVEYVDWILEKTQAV

[14] = Selectivity index, ratio of IC50 for FXIa (unknown origin) to IC50 for FXIIa (unknown origin)
Chymotrypsin = Chymotrypsin (Homo sapiens, UniProt Q99895+P17538+P40313+Q6GPI1); experiment: Inhibition of Chymotrypsin (unknown origin) using N-Suc-Ala-Ala-Pro-Phe-pNA as chromogenic substrate incubated for 20 mins followed by substrate addition by spectrophotometric analysis; type: protein assay
[15] = Selectivity index, ratio of IC50 for tPA (unknown origin) to IC50 for FXIIa (unknown origin)
[16] = Selectivity index, ratio of IC50 for FXa (unknown origin) to IC50 for FXIIa (unknown origin)
Plasminogen = Plasminogen (Homo sapiens, UniProt P00747); experiment: Inhibition of plasmin (unknown origin) using PyroGlu-Phe-Lys-pNA.HCl as chromogenic substrate incubated for 20 mins followed by substrate addition by spectrophotometric analysis
Sequence of Plasminogen (P00747 97-580 limits assumed): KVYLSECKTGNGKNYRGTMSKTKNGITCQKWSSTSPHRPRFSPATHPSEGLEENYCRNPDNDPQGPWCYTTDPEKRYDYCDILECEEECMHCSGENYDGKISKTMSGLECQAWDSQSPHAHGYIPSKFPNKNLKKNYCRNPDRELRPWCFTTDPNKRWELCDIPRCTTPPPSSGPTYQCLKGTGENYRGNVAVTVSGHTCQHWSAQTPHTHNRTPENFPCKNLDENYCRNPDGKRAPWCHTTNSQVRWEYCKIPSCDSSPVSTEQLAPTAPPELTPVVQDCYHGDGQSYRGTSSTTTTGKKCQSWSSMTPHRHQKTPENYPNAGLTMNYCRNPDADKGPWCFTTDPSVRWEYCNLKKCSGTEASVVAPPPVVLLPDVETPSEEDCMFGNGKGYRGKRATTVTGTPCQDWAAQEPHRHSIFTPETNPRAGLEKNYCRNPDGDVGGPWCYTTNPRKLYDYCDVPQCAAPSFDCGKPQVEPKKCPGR
Sequence of Plasminogen (P00747 581-810 limits assumed): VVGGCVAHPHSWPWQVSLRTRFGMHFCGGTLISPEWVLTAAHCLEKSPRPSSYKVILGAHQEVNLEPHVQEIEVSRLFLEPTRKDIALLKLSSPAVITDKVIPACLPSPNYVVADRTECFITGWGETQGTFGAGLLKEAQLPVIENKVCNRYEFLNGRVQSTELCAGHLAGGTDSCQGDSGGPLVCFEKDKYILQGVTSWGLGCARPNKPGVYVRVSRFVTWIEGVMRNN

Trypsin = Trypsin (Homo sapiens, UniProt P07477+P07478+P35030); experiment: Inhibition of trypsin (unknown origin) using Bz-lle-Glu(gamma-OR)-Gly-Arg-pNA.HCl as chromogenic substrate incubated for 20 mins followed by substrate addition by spectrophotometric analysis; type: protein assay
Plasma [17] = experiment: Anticoagulant activity in human plasma assessed as prolongation of […] time at 300 uM incubated for 2 mins by PT reagent based assay; type: functional, cell-free
Coagulation factor X = Coagulation factor X (Homo sapiens, UniProt P00742); experiment: Inhibition of FXa (unknown origin) using Z-D-Arg-Gly-Arg-pNA.2HCl as chromogenic substrate incubated for 20 mins followed by substrate addition by spectrophotometric analysis
Sequence of Coagulation factor X (P00742 41-179 limits assumed): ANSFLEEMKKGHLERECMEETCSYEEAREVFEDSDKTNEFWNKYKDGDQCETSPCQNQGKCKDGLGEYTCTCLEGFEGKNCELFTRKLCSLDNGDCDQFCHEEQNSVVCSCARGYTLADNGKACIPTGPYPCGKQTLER
Sequence of Coagulation factor X (P00742 235-488 limits assumed): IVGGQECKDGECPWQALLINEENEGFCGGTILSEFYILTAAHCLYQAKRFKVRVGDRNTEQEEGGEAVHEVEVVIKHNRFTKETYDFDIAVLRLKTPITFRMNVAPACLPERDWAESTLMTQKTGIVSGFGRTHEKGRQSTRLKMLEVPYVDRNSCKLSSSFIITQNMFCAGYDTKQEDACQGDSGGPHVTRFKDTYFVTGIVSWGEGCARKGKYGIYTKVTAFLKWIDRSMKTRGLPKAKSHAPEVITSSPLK

SMILES | IC50 (Coagulation factor XII [2]) | inhibition [3] | other results
Cc1cc(N2CCn3c(nnc3C(F)(F)F)[C@@H]2C)ncc1CNc1cccc2c(N)nccc12 |  |  | IC50 (Coagulation factor XII [1]): 10 nM
Nc1nc(-c2ccccn2)nn1C(=O)c1ccc(NC(=O)c2ccccc2)c(F)c1 |  | 9% | 
CC(C)N1CCN(c2ccc(C(=O)n3nc(-c4ccc(F)cn4)nc3N)cc2)CC1 | 79 nM | 79% | Activity (RAW264.7 [4]): Active; Activity (RAW264.7 [5]): Active
Nc1nc(-c2ccccn2)nn1C(=O)c1ccc(N2CCC3(CC2)OCCO3)cc1 | 202 nM | 70% | 
O=C(NC[C@H]1CN(c2ccc(N3CCOCC3=O)cc2)C(=O)O1)c1ccc(Cl)s1 [RIVAROXABAN] |  |  | Activity [6]: Toxic
Nc1nc(-c2ccccn2)nn1C(=O)c1ccc(N2CCC3(CC2)CC3)cc1 |  | 21% | 
Nc1nc(-c2ccccn2)nn1C(=O)c1ccc(N2CCN(C3CCCC3)CC2)c2ccccc12 | 50 nM |  | 
Nc1nccc2c(NCC34COC(COc5ccn6ccnc6c5)(C3)C4)cccc12 |  |  | IC50 (Coagulation factor XII [1]): 100 nM
CN1CCC(c2ccc(C(=O)n3nc(-c4ccccn4)nc3N)cc2)CC1 |  | 34% | 
CC(C)S(=O)(=O)N1CCN(c2ccc(C(=O)n3nc(-c4ccccn4)nc3N)c3ccccc23)CC1 | 95 nM |  | 
Nc1nc(-c2ccccn2)nn1C(=O)c1cccc(N2CCC3(CC2)OCCO3)c1 |  | 40% | 
Nc1nc(-c2ccccn2)nn1C(=O)c1ccc(N2CCN(CCO)CC2)cc1 |  | 63% | 
CC(C)N1CCN(c2ccc(C(=O)n3nc(-c4ccc(Cl)cn4)nc3N)cc2)CC1 | 81 nM | 77% | 
Nc1nc(-c2ccccn2)nn1C(=O)c1ccc(N2CCN(C3CCCCC3)CC2)c2ccccc12 | 56 nM |  | 
CN(C)CCN(C)c1ccc(C(=O)n2nc(-c3ccccn3)nc2N)cc1 | 190 nM | 72% | 
Nc1nc(-c2ccccn2)nn1C(=O)c1ccc(NC(=O)c2ccccc2)cc1F |  | 28% | 
CC(C)N1CCN(c2ccc(C(=O)n3nc(-c4ccccn4)nc3N)c3c2OCCO3)CC1 | 51 nM |  | 
CN1CC=C(c2ccc(C(=O)n3nc(-c4ccccn4)nc3N)cc2)CC1 |  | 40% | 
Nc1nc(-c2ccccn2)nn1C(=O)c1ccc(N2CCN(C3CC3)CC2)c2ccccc12 | 40 nM |  | 
Nc1nc(-c2ccccn2)nn1C(=O)c1ccc(NC(=O)c2cccc3c2OCCO3)cc1 |  | 62% | 

The next lines start with results.

IC50 (Coagulation factor XII [2]) | inhibition [3] | SMILES | other results
180 nM | 72% | CN1CCN(c2ccc(C(=O)n3nc(-c4ccccn4)nc3N)cc2)CC1 | 
 | 62% | Nc1nc(-c2ccccn2)nn1C(=O)c1ccc(NC(=O)c2cccc3c2CCCC3)cc1 | 
 | 28% | CC(C)C[C@@H](NC1CCCC1)C(=O)Nc1ccc(C(=O)n2nc(-c3ccccn3)nc2N)cc1 | 
 | 60% | Nc1nc(-c2ccccn2)nn1C(=O)c1ccc(NC(=O)c2cccc3ccccc23)cc1 | 
48 nM | 82% | Cc1cc(C(=O)n2nc(-c3ccccn3)nc2N)ccc1N1CCN(C(C)C)CC1 | Activity (RAW264.7 [4]): Active; Activity (RAW264.7 [5]): Active
 | 43% | COc1cc(C(=O)n2nc(-c3ccccn3)nc2N)ccc1N1CCN(C(C)C)CC1 | 
163 nM | 74% | Nc1nc(-c2ccccn2)nn1C(=O)c1ccc(NC(=O)c2ccccc2)cc1 | Ratio IC50 [7]: > 150; Ratio IC50 [8]: > 30; IC50 (Plasma kallikrein): > 25000 nM; IC50 [9]: > 5000 nM; Activity (Plasma [10]): 35%; Ratio IC50 [11]: > 30; Ratio IC50 [12]: 770; IC50 (Prothrombin): 15700 nM; Ratio IC50 [13]: > 30; IC50 (Coagulation factor XI): > 25000 nM; Ratio IC50 [14]: > 150; IC50 (Chymotrypsin): > 5000 nM; Ratio IC50 [15]: > 30; Ratio IC50 [16]: > 30; IC50 (Plasminogen): > 5000 nM; IC50 (Trypsin): > 5000 nM
 | 28% | Cc1cc(C(=O)n2nc(-c3ccccn3)nc2N)cc(C)c1N1CCN(C(C)C)CC1 | 
195 nM | 71% | CN1CCN(c2ccc(C(=O)n3nc(-c4ccncc4)nc3N)cc2)CC1 | 
 | 57% | CN1CCN(c2ccc(C(=O)n3nc(-c4cccnc4)nc3N)cc2)CC1 | 
86 nM |  | CN(C)C(=O)N1CCN(c2ccc(C(=O)n3nc(-c4ccccn4)nc3N)c3ccccc23)CC1 | 
 | 33% | Nc1nc(-c2ccccn2)nn1C(=O)c1ccc(NC(=O)[C@@H](CC2CCCCC2)NC2CCCCC2)cc1 | 
 | 65% | COCCN1CCN(c2ccc(C(=O)n3nc(-c4ccccn4)nc3N)cc2)CC1 | 
 | 24% | Nc1nc(-c2ccccn2)nn1C(=O)c1ccc(NC(=O)[C@@H](Cc2ccccc2)NC2CCCCC2)cc1 | 
39 nM |  | Nc1nc(-c2ccccn2)nn1C(=O)c1ccc(N2CCN(C3COC3)CC2)c2ccccc12 | Ratio IC50 [7]: > 640; Activity (RAW264.7 [4]): Active; Ratio IC50 [8]: > 640; IC50 (Plasma kallikrein): > 25000 nM; IC50 [9]: > 25000 nM; Activity (Plasma [10]): 472%; Ratio IC50 [11]: > 640; Ratio IC50 [12]: 830; Activity (Plasma [17]): inactive; IC50 (Prothrombin): 20000 nM; Ratio IC50 [13]: > 640; IC50 (Coagulation factor XI): > 25000 nM; Ratio IC50 [14]: > 640; IC50 (Coagulation factor X): > 25000 nM; IC50 (Chymotrypsin): > 25000 nM; Activity (RAW264.7 [5]): Active; Ratio IC50 [15]: > 640; Ratio IC50 [16]: > 640; IC50 (Plasminogen): > 25000 nM; IC50 (Trypsin): > 25000 nM
 | 39% | Nc1nc(-c2ccccn2)nn1C(=O)c1ccc(NCc2ccccc2)cc1 | 
72 nM | 79% | CC(C)N1CCN(c2ccc(C(=O)n3nc(-c4ccccn4)nc3N)cc2)CC1 | 
 | 21% | CN1CCN(c2cccc(C(=O)n3nc(-c4ccccn4)nc3N)c2)CC1 | 
